# Assay results from patent publication US10413532B2, “Pharmaceutical compositions containing a PDE4 inhibitor and a PI3 delta or dual PI3 delta-gamma kinase inhibitor” (Rhizen Pharmaceuticals SA, priority 2012, dated 2019).
# Read-outs that look alike come from different tables or passages of the source.
# Experiments:
# [1] = system: elastase; experiment: fMLP induced elastase release from human neutrophils; assay type: cell-based; details: compound alone at 300 nM
# Description: Blood was procured from a local blood bank. Neutrophils were obtained using the dextran sedimentation method. Cells were plated at 100,000 cells per well in a 96-well plate, treated with fMLP (1 μM) and N-Succinyl-Ala-Ala-Ala-p-nitroanalide (1 μM) (Sigma) and incubated for 2 h. Intensity of digested substrate after incubation was determined by measuring the absorbance at 405 nm on a Fluostar Omega (BMG Labtech, NC, USA).
# [2] = system: MMP-9; experiment: MMP-9 release from PMA-induced THP-1 cells (gelatin zymography); assay type: cell-based, human; details: compound alone at 300 nM
# Description: Gelatinase activity of MMP-9 was determined by zymography. Proteins in supernatant (after incubation of THP-1 cells with 50 ng PMA for 24 h) were separated on gels containing 0.1% gelatin (Sigma, USA). Gels were re-natured by incubation in 2.5% Triton X-100 for 30 min, incubated overnight in substrate buffer (50 mMTris-HCl, pH 7.5) containing 10 mM CaCl2 and 0.05% ZnCl2 at 37° C. and stained with Coomassie brilliant blue (0.5%). […] Molecular weight markers (Fermentas, Lithuania) were run with each gel. Band intensity was calculated using ImageJ 1.42 (NIH, USA).
# [3] = system: pAkt (S473); experiment: phospho-Akt (S473) in differentiated U937 cells stimulated with cigarette smoke extract (SDS-PAGE); assay type: cell-based; details: Homo sapiens, U-937; compound alone; differentiated U937, CSE; read-out: IC50 of inhibition of Akt phosphorylation
# Description: U-937 monocytes were differentiated into macrophages by incubation with 50 ng/ml PMA for 48 h. Cells were trypsinized and plated at a density of 100,000 per well and stimulated with CSE for 2 h in starvation media. Lysates were made using RIPA buffer and run by SDS-PAGE, transferred to PVDF membrane and probed with phospho-Akt (S473) antibody (Cell signaling, USA) followed by anti-rabbit IgG (Cell signaling, USA). Band intensity was calculated using ImageJ 1.42 (NIH, USA).
# [4] = system: neutrophil infiltration; experiment: Lipopolysaccharide induced pulmonary neutrophilia in female Wistar rats; assay type: in vivo
# Description: After the quarantine period, fasted animals were randomized and divided into groups depending on their body weights. Test compound was prepared as a suspension in a vehicle consisting of 0.5% methylcellulose in which Tween 80 was used as a suspending agent. Compounds or vehicle were administered by oral gavage in a volume of 10 mL/kg. Animals were anaesthetized with ketamine and LPS solution was administered intratracheally 30 minutes after compound administration at a dose of 1 mg/kg. Six hours after LPS instillation, animals were exsanguinated under anaesthesia, and the trachea was cannulated, and lungs were lavaged with 5-ml aliquots of heparinised PBS (1 unit/ml) four times through the tracheal cannula (total volume 20 ml). Bronchioalveolar (BAL) fluid was stored at 2-8° C. until assayed for total cell and differential leukocyte count. BAL fluid was centrifuged (500×g for 10 min) and the resulting cell pellet was resuspended in 0.5 ml of heparinised saline. The total numbers of white blood cells were determined in BAL fluid or blood using a cell counter and were adjusted to 1×10^6 cell/ml. Differential cell count was calculated manually. One hundred microliters of the cell suspension was centrifuged using cytospin 3 to prepare a cell smear. The cell smear was stained with a blood staining solution for differentiation and slides were microscopically observed to identify eosinophils according to their morphological characteristics. The number of each cell type among 300 white blood cells in the cell smear was determined and expressed as a percentage of total cells. The number of eosinophil in BALF was calculated.
# The procedure for LPS induced pulmonary neutrophilia in female Wistar rats as described in Example 1 was performed with compound A1 and roflumilast.
# [5] = system: macrophage and neutrophil infiltration; experiment: Acute cigarette smoke induced cell infiltration in male Balb/c mice; assay type: in vivo; details: acute CS, mouse; for ED50: oral
# Description: Animals were acclimatized for seven days prior to the start of the experiment. Animals were randomly distributed to various groups based on their body weights. On day 1, mice were administered by test compound or vehicle by the oral route and after 30 mins test compound administration animals were placed in a whole body exposure box. The mice were exposed to the mainstream smoke of 6 cigarettes from day 1 to day 4. Exposure to the smoke of each cigarette lasted for 10 min (cigarettes were completely burned in the first two minutes and followed by an air flow with animal ventilator) followed by exposure for the next 20 min with fresh room air. After every second cigarette an additional break of 20 min with exposure to fresh room air was conducted. Control animals were exposed to the room air chamber. From day 1 to day 4 animals were administered test compound by the oral route. On day 5, 24 hours after the last cigarette smoke (CS) exposure. animals were exsanguinated under anaesthesia, and the trachea was cannulated and the lungs were lavaged with 0.5 ml aliquots of heparinised PBS (1 unit/ml) four times through a tracheal cannula (total volume 2 ml). Bronchioalveolar (BAL) collected was stored at 2-8° C. until assayed for total cell and differential leukocyte count. BAL fluid was centrifuged (500×g for 10 min) and the resulting cell pellet was resuspended in 0.5 ml of heparinised saline. The total number of white blood cells was determined in BAL fluid and blood using a blood cell counter and adjusted to 1×10^6 cell/ml. Differential cell count was calculated manually. Forty microliters of the cell suspension was centrifuged using cytospin 3 to prepare a cell smear. The cell smear was stained with a blood staining solution for differentiation and microscopically observed by identifying each cell according to its morphological characteristics. The number of each cell type among 300 white blood cells in the cell smear were determined and expressed as a percentage, and the number of neutrophils and macrophages in each BAL fluid were calculated.
# The procedure for acute cigarette smoke induced cell infiltration in male Balb/c mice described in Example 1 was performed with Compound A1 and roflumilast
# [6] = system: macrophage and neutrophil infiltration; experiment: Chronic cigarette smoke induced cell infiltration in male Balb/c mice; assay type: in vivo; details: alone at 1 mg/kg oral; chronic CS, mouse
# Description: Animals were acclimatized for seven days prior to the start of the experiment. Animals were randomly distributed to various groups based on their body weights. Mice were exposed to the mainstream smoke of 4 cigarettes from day 1 to day 11. Exposure to the smoke of each cigarette lasted for […] (each cigarette was completely burned in the first two minutes, followed by an air flow with animal ventilator) and were exposed for the next 20 min with fresh room air. After every second cigarette an additional break of 20 min with exposure to fresh room air was conducted. Control animals were exposed to the room air chamber. Test compound was administered by the oral route from day 6 to day 11 before 30 mins whole body smoke exposure. On day 12, 24 hours after the last cigarette smoke (CS) exposure animals were exsanguinated under anaesthesia, and the trachea was cannulated and the lungs were lavaged with 0.5 ml aliquots of heparinised PBS (1 unit/nil) four times through tracheal cannula (total volume 2 ml). Bronchioalveolar (BAL) collected was stored at 2-8° C. until assayed for total cell and differential leukocyte count. BAL fluid was centrifuged (500×g for 10 min) and the resulting cell pellet was resuspended in 0.5 ml of heparinised saline. The total number of white blood cells was determined in BAL fluid and blood using a blood cell counter and adjusted to 1×10^6 cell/ml. Differential cell count was calculated manually Forty microliters of the cell suspension was centrifuged using cytospin 3 to prepare a cell smear. The cell smear was stained with a blood staining solution for differentiation and microscopically observed by identifying each cell according to its morphological characteristics. The number of each cell type among 300 white blood cells in the cell smear was determined and expressed as a percentage, and the number of neutrophils and macrophages in each BAL fluid were calculated.
# [7] = system: TNFα; experiment: LPS induced TNFα in PBMC; assay type: cell-based; details: 1000 nM alone, LPS 1 μg/ml, 24 h
# Description: PBMC (peripheral blood mononuclear cells) from whole blood were isolated by density gradient using Histopaque and incubated with the desired concentration of inhibitor for 15 minutes. LPS (1 μg/ml) was added and then incubated for 24 hours. The supernatant was collected and TNFα estimated using an eBioscience TNFα ELISA kit.
# PBMC from whole blood were isolated by density gradient using Histopaque and incubated with the desired concentration of inhibitor for 15 minutes. LPS (1 μg/m1) was added and then incubated for 24 hours. The supernatant was collected and TNFα estimated using an eBioscience TNFα ELISA kit.
# [8] = system: TNFα; experiment: LPS induced TNFα in MH-S (mouse alveolar macrophage) cells; assay type: cell-based; details: 130 nM alone
# Description: MH-S represents a mouse alveolar macrophage cell line that secretes copious amounts of TNFα upon induction by LPS. Cells were plated at 150,000 cells per well. 10 nM of Compound A1 (final concentration) was added 15 minutes prior to the addition of roflumilast. LPS (1 μg/ml) was added and then incubated for 4 hours. The supernatant was collected after 20 hours and TNFα was estimated using an ELISA kit.
# [9] = 3 mg/kg oral, dose-response study
# [10] = combination study, alone at 3 mg/kg
compound,measurement,setting,value
"Cc1ccccc1-n1c(Cn2cnc3c(N)ncnc32)nc2cccc(C)c2c1=O [Compound B, 2-((6-amino-9H-purin-9-yl)methyl)-5-methyl-3-o-tolylquinazolin-4(3H)-one]",reduction of elastase release,[1],10%
same,effect on MMP-9 release,[2],no effect
same,IC50,[3],0.78 µM
"C[C@H](Nc1ncnc2[nH]cnc12)c1oc2ccc(F)cc2c(=O)c1-c1cccc(F)c1 [Compound C, (S)-2-(1-(9H-purin-6-ylamino)ethyl)-6-fluoro-3-(3-fluorophenyl)-4H-chromen-4-one]",percent inhibition of neutrophil infiltration,"[4]; 0.1 mg/kg oral, rat BAL fluid 6 h after LPS",14.15%
same,percent inhibition of neutrophil infiltration,"[4]; 1 mg/kg oral, dose-response study, rat",57.76%
same,percent inhibition of neutrophil infiltration,"[4]; 3 mg/kg oral, rat",56.93%
same,percent inhibition of neutrophil infiltration,"[4]; 10 mg/kg oral, rat",81.55%
same,ED50,"[4]; Neutrophil, oral, rat LPS pulmonary neutrophilia, read-out: 50% inhibition (ED50) dose, neutrophil infiltration",1 mg/kg
same,inhibition of neutrophil infiltration,"[4]; combination study, alone at 1 mg/kg, rat",36.56%
same,percent inhibition of macrophage infiltration,[5]; 1 mg/kg oral,34.84%
same,percent inhibition of neutrophil infiltration,[5]; 1 mg/kg oral,29.06%
same,percent inhibition of macrophage infiltration,[5]; [9],42.09%
same,percent inhibition of neutrophil infiltration,[5]; [9],62.38%
same,percent inhibition of macrophage infiltration,[5]; 10 mg/kg oral,61.77%
same,percent inhibition of neutrophil infiltration,[5]; 10 mg/kg oral,74.25%
same,ED50,"[5]; Macrophage, read-out: 50% inhibition (ED50) dose, macrophage infiltration",4.4 mg/kg
same,ED50,"[5]; Neutrophil, read-out: dose of 50% inhibition (ED50) of neutrophil infiltration",2.1 mg/kg
same,inhibition of macrophage infiltration,[5]; [10],30.01%
same,inhibition of neutrophil infiltration,[5]; [10],41.47%
same,inhibition of macrophage infiltration,[6],−13.30%
same,inhibition of neutrophil infiltration,[6],4.08%
same,decrease of TNFα secretion,[7],20%
"CCOc1cc([C@@H](CS(C)(=O)=O)N2C(=O)c3cccc(NC(C)=O)c3C2=O)ccc1OC [aprelimilast, reference compound]",decrease in TNFα secretion,[8],~10%
